Measured values reported in patent US20230271964A1, “5-AMINO-8-(4-PYRIDYL)-[1,2,4]TRIAZOLO[4,3-C]PYRIMIDIN-3-ONE COMPOUNDS FOR USE AGAINST CANCER” (ASTRAZENECA AB, priority 2020, published 2023).

Columns and labels:
[1] = molecular target: human adenosine A1 receptor (Homo sapiens (Human), UniProt P30542); assay: Adenosine receptor inhibition binding assay, [3H]DPCPX, A1 receptor membranes; conditions: 1 nM [3H]DPCPX, 25° C., 1 h, Ki from IC50 by Cheng-Prusoff; for Ki: read-out: A1 pKi (converted)
Sequence of human adenosine A1 receptor (P30542 whole entry): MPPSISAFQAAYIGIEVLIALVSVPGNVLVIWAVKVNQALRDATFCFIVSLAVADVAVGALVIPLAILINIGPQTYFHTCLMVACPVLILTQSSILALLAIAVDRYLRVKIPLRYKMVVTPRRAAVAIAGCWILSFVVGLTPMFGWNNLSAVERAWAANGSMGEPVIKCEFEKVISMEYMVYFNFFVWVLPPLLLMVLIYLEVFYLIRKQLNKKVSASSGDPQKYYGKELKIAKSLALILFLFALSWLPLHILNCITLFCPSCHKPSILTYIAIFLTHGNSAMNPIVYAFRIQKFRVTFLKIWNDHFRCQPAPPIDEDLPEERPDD
Protocol: (§1) Inhibition binding assays were performed using 0.2 µg of membranes prepared from HEK293 cells infected with BacMam human adenosine A2A receptor or 1.4 µg of membranes prepared from HEK293 cells infected with BacMam human adenosine A1 receptor. Membranes were incubated in 50 mM Tris-HCl (HEK293-hA2A; pH 7.4) or 50 mM Tris-HCl, 100 mM NaCl, 10 mM MgCl2 (CHO-hA1; pH 7.4) in the presence of varying concentrations of test compound and 1 nM [^3H]ZM241385 (HEK293-hA2A) or [^3H]DPCPX (CHO-hA1) at 25° C. for 1 h. The assay was then terminated by rapid filtration onto GF/B grade Unifilter plates using a TomTec cell harvester, followed by 5 × 0.5 ml washes with ddH2O. Nonspecific binding was defined in the presence of 1 µM CGS 15943 (HEK293-hA2A) or 1 µM DPCPX (CHO-hA1). Bound radioactivity was determined by liquid scintillation counting and inhibition curves were analysed using a four-parameter logistic equation. IC50 values were converted to Ki values with the Cheng-Prusoff equation using a KD value derived from saturation binding studies.

[2] = molecular target: human adenosine A2A receptor (Homo sapiens (Human), UniProt P29274); assay: Adenosine receptor inhibition binding assay, [3H]ZM241385, HEK293 A2A receptor membranes; conditions: 1 nM [3H]ZM241385, HEK293-hA2A membranes, 25° C., 1 h, Ki from IC50 by Cheng-Prusoff; for Ki: read-out: A2A pKi (converted)
Sequence of human adenosine A2A receptor (P29274 whole entry): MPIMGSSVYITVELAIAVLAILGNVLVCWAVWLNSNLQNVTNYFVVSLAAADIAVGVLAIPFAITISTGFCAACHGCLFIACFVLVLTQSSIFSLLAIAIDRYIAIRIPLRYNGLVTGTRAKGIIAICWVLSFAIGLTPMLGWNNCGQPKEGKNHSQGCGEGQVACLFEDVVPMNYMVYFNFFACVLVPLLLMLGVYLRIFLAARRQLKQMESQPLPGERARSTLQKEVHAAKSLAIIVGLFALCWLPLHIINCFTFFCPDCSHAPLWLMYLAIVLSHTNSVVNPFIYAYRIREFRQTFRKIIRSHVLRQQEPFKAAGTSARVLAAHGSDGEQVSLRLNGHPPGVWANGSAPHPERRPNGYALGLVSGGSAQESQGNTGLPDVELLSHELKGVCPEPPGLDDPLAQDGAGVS
Protocol: as §1

SMILES	A1 pKi [1]	A2A pKi [2]	Ki [1]	Ki [2]
Cc1cc(-c2c(-c3ccccc3)nc(N)n3c(=O)n(CC4CCCN4C)nc23)cc(C)n1 (stereo not shown) [Example 2-6, 5-amino-8-(2,6-dimethyl-4-pyridyl)-2-[(1-methylpyrrolidin-2-yl)methyl]-7-phenyl-[1,2,4]triazolo[4,3-c]pyrimidin-3-one]	6.2	9.1		
COc1cccc(-c2nn(Cc3ccccc3)cc2Cn2nc3c(-c4cc(C)nc(C)c4)c(-c4ccccc4)nc(N)n3c2=O)c1 [Example 1-33, 5-amino-2-[[1-benzyl-3-(3-methoxyphenyl)pyrazol-4-yl]methyl]-8-(2,6-dimethyl-4-pyridyl)-7-phenyl-[1,2,4]triazolo[4,3-c]pyrimidin-3-one]	7.1	8.1		
Cc1cc(-c2c(-c3ccccc3)nc(N)n3c(=O)n(CCc4ncc[nH]4)nc23)cc(C)n1 [Example 1-3, 5-amino-8-(2,6-dimethyl-4-pyridyl)-2-[2-(1H-imidazol-2-yl)ethyl]-7-phenyl-[1,2,4]triazolo[4,3-c]pyrimidin-3-one]	5.9	7.9		
Cc1cc(-c2c(-c3ccccc3)nc(N)n3c(=O)n(C[C@@H]4C[C@H](O)CN4)nc23)cc(C)n1 [Example 2-22, 5-amino-8-(2,6-dimethyl-4-pyridyl)-2-[[(2S,4S)-4-hydroxypyrrolidin-2-yl]methyl]-7-phenyl-[1,2,4]triazolo[4,3-c]pyrimidin-3-one]	5.9	8.2		
[2H]c1c([2H])c([2H])c(-c2nc(N)n3c(=O)n(C[C@H]4CCCO4)nc3c2-c2cc(C)nc(CO)c2)c([2H])c1[2H] [Example 2-30, 5-amino-8-[2-(hydroxymethyl)-6-methyl-4-pyridyl]-7-(2,3,4,5,6-pentadeuteriophenyl)-2-[[(2R)-tetrahydrofuran-2-yl]methyl]-[1,2,4]triazolo[4,3-c]pyrimidin-3-one]			501 nM	1 nM
Cc1cc(-c2c(-c3ccccc3)nc(N)n3c(=O)n(Cc4nonc4C)nc23)cc(C)n1 [Example 1-19, 5-amino-8-(2,6-dimethyl-4-pyridyl)-2-[(4-methyl-1,2,5-oxadiazol-3-yl)methyl]-7-phenyl-[1,2,4]triazolo[4,3-c]pyrimidin-3-one]	7.2	9.6		
Cc1cc(-c2c(-c3ccccc3)nc(N)n3c(=O)n(C[C@H]4CCCO4)nc23)cc(C)n1 [Example 2-16, 5-amino-8-(2,6-dimethyl-4-pyridyl)-7-phenyl-2-[[(2R)-tetrahydrofuran-2-yl]methyl]-[1,2,4]triazolo[4,3-c]pyrimidin-3-one]	6.7	9.2		
Cc1cc(-c2c(-c3ccccc3)nc(N)n3c(=O)n(CCn4cccn4)nc23)cc(C)n1 [Example 1-1, 5-amino-8-(2,6-dimethyl-4-pyridyl)-7-phenyl-2-(2-pyrazol-1-ylethyl)-[1,2,4]triazolo[4,3-c]pyrimidin-3-one]	6.2	7.5		
COc1cc(-c2c(-c3ccc(F)cc3)nc(N)n3c(=O)n(C[C@H]4CCCO4)nc23)cc(CO)n1 [Example 2-37, 5-amino-7-(4-fluorophenyl)-8-[2-(hydroxymethyl)-6-methoxy-4-pyridyl]-2-[[(2R)-tetrahydrofuran-2-yl]methyl]-[1,2,4]triazolo[4,3-c]pyrimidin-3-one]	5.5	9.0		
CCn1nccc1CCn1nc2c(-c3cc(C)nc(C)c3)c(-c3ccccc3)nc(N)n2c1=O [Example 1-7, 5-amino-8-(2,6-dimethyl-4-pyridyl)-2-[2-(2-ethylpyrazol-3-yl)ethyl]-7-phenyl-[1,2,4]triazolo[4,3-c]pyrimidin-3-one]	6.6	8.0		
Cc1cc(-c2c(-c3ccccc3)nc(N)n3c(=O)n(CCc4nnn(C)n4)nc23)cc(C)n1 [Example 1-6, 5-amino-8-(2,6-dimethyl-4-pyridyl)-2-[2-(2-methyltetrazol-5-yl)ethyl]-7-phenyl-[1,2,4]triazolo[4,3-c]pyrimidin-3-one]	5.7	7.2		
Cc1cc(-c2c(-c3ccccc3)nc(N)n3c(=O)n(Cc4ncco4)nc23)cc(CO)n1 [Example 1-40, 5-amino-8-[2-(hydroxymethyl)-6-methyl-4-pyridyl]-2-(oxazol-2-ylmethyl)-7-phenyl-[1,2,4]triazolo[4,3-c]pyrimidin-3-one]	6.9	8.8		
[2H]c1c([2H])c([2H])c(-c2nc(N)n3c(=O)n(Cc4ncoc4C)nc3c2-c2cc(CO)nc(OC)c2)c([2H])c1[2H] [Example 1-63, 5-amino-8-[2-(hydroxymethyl)-6-methoxy-4-pyridyl]-2-[(5-methyloxazol-4-yl)methyl]-7-(2,3,4,5,6-pentadeuteriophenyl)-[1,2,4]triazolo[4,3-c]pyrimidin-3-one]			316 nM	0.0794 nM
Cc1cc(-c2c(-c3ccccc3)nc(N)n3c(=O)n(Cc4coc(C)n4)nc23)cc(C)n1 [Example 1-15, 5-amino-8-(2,6-dimethyl-4-pyridyl)-2-[(2-methyloxazol-4-yl)methyl]-7-phenyl-[1,2,4]triazolo[4,3-c]pyrimidin-3-one]	6.7	8.9		
Cc1cc(-c2c(-c3ccccc3)nc(N)n3c(=O)n(C4CCNC4)nc23)cc(C)n1 (stereo not shown) [Example 2-2, 5-amino-8-(2,6-dimethyl-4-pyridyl)-7-phenyl-2-pyrrolidin-3-yl-[1,2,4]triazolo[4,3-c]pyrimidin-3-one]	5.7	7.4		
Cc1cc(-c2c(-c3ccccc3)nc(N)n3c(=O)n(C[C@H]4C[C@@H](F)CN4)nc23)cc(C)n1 [Example 2-19, 5-amino-8-(2,6-dimethyl-4-pyridyl)-2-[[(2R,4R)-4-fluoropyrrolidin-2-yl]methyl]-7-phenyl-[1,2,4]triazolo[4,3-c]pyrimidin-3-one]	6.2	8.0		
Cc1cc(-c2c(-c3ccccc3)nc(N)n3c(=O)n(Cc4nccn4C)nc23)cc(C)n1 [Example 1-11, 5-amino-8-(2,6-dimethyl-4-pyridyl)-2-[(1-methylimidazol-2-yl)methyl]-7-phenyl-[1,2,4]triazolo[4,3-c]pyrimidin-3-one]	7.8	9.8		
Cc1cc(-c2c(-c3ccccc3)nc(N)n3c(=O)n(C[C@@H]4C[C@@H](F)CN4)nc23)cc(C)n1 [Example 2-21, 5-amino-8-(2,6-dimethyl-4-pyridyl)-2-[[(2S,4R)-4-fluoropyrrolidin-2-yl]methyl]-7-phenyl-[1,2,4]triazolo[4,3-c]pyrimidin-3-one]	6.4	8.4		
Cc1cc(-c2c(-c3ccc(F)cc3)nc(N)n3c(=O)n(Cc4nc(C)oc4C)nc23)cc(C)n1 [Example 1-32, 5-amino-2-[(2,5-dimethyloxazol-4-yl)methyl]-8-(2,6-dimethyl-4-pyridyl)-7-(4-fluorophenyl)-[1,2,4]triazolo[4,3-c]pyrimidin-3-one]	7.0	9.5		
[2H]c1c([2H])c([2H])c(-c2nc(N)n3c(=O)n(Cc4nccn4C)nc3c2-c2cc(CO)nc(OC)c2)c([2H])c1[2H] [Example 1-62, 5-amino-8-[2-(hydroxymethyl)-6-methoxy-4-pyridyl]-2-[(1-methylimidazol-2-yl)methyl]-7-(2,3,4,5,6-pentadeuteriophenyl)-[1,2,4]triazolo[4,3-c]pyrimidin-3-one]			126 nM	0.251 nM
COCCN1CCC[C@@H]1Cn1nc2c(-c3cc(C)nc(C)c3)c(-c3ccccc3)nc(N)n2c1=O [Example 2-10, 5-amino-8-(2,6-dimethyl-4-pyridyl)-2-[[(2R)-1-(2-methoxyethyl)pyrrolidin-2-yl]methyl]-7-phenyl-[1,2,4]triazolo[4,3-c]pyrimidin-3-one]	6.3	8.2		
Cc1cc(-c2c(-c3ccccc3)nc(N)n3c(=O)n(CCc4nccn4C)nc23)cc(C)n1 [Example 1-2, 5-amino-8-(2,6-dimethyl-4-pyridyl)-2-[2-(1-methylimidazol-2-yl)ethyl]-7-phenyl-[1,2,4]triazolo[4,3-c]pyrimidin-3-one]	6.1	8.2		
Cc1cc(-c2c(-c3ccccc3)nc(N)n3c(=O)n(CCN4CCCC4)nc23)cc(C)n1 [Example 2-26, 5-amino-8-(2,6-dimethyl-4-pyridyl)-7-phenyl-2-(2-pyrrolidin-1-ylethyl)-[1,2,4]triazolo[4,3-c]pyrimidin-3-one]	<5.7	6.9		
